Test results taken from patent publication US20070248646A1, “Use of azurocidin inhibitors in prevention and treatment of ocular vascular leakage” (priority 2006, published 2007).

What was measured:
[1] = system: VEGF-induced retinal leukostasis; assay: Concanavalin A ex vivo retinal leukostasis quantification, VEGF-induced; type: in vivo, Brown Norway rats
Protocol: This study employed Brown Norway rats, AZ (1 μg, 10 μg, 20 μg), PBS, aprotinin, VEGF164, and polyclonal anti-AZ antibody (1 μg). Briefly, Brown Norway rats received intravitreal injections of AZ (1 μg, 10 μg and 20 μg) in one eye and PBS in the contralateral eye. BRB breakdown was quantified using the Evans Blue (EB) technique at 1 hour, 3 hours, and 24 hours after intravitreal injection of AZ or PBS. To assess whether AZ induced retinal leukostasis, firm leukocyte adhesion was quantified at 3 hours and 24 hours post AZ injection (10 μg) using the ex vivo conconavalin leukostasis assay. To block AZ, rats were treated with a single intravenous injection of aprotinin (30,000KIU), prior to the intravitreal injections. To investigate whether AZ was involved in VEGF-induced BRB breakdown, rats received intravitreal injections of 50 ng recombinant mouse VEGF164 in one eye and PBS in the other eye and were treated intravenously with aprotinin (50,000KIU every eight hours) or polyclonal anti-AZ antibody (1 μg). BRB breakdown and retinal leukostasis were quantified 24 hours after VEGF injection.
Deep anesthesia was induced with xylazine and ketamine as above. The chest cavity was carefully opened and the left ventricle was entered with a 14-gauge perfusion cannula fixed to a vessel clamp; care was taken to avoid ventricular obstruction. The right atrium was opened with a 12-gauge needle to achieve outflow. With the heart providing the motive force, 250 ml/kg PBS (roughly 30 ml of PBS quickly) was perfused to clear erythrocytes and non-sticking leukocytes, followed by perfusion with FITC-coupled Concanavalin A lectin (20 μg/ml in PBS, pH 7.4, total concentration 5 mg/kg) (Vector Labs, Burlingame, Calif.). The latter stained adherent leukocytes and the vascular endothelium. Lectin staining was followed by PBS perfusion (30 ml quickly).
The retinas were flat-mounted in a water-based fluorescence-anti-fading medium (Southern Biotechnology, Birmingham, Ala.) and imaged via fluorescence microscopy (Leica upright microscope, Hamamatsu digital high sensitivity camera, openlab imaging software). The total number of adherent leukocytes per retina was counted in a masked fashion.

[2] = system: choroidal neovascular leakage; assay: Laser-induced CNV leakage by fluorescein angiography (model of AMD); type: in vivo, mice; details: 50,000KIU/day, i.p.
From the text: Laser-induced CNV is a VEGF-dependent model for exudative changes that occur in AMD. In this model, disruption of an animal's Bruch's membrane by laser results in formation of CNV lesions. In these lesions, neovascular capillaries originate within the choroid and extend through the disrupted Bruch's membrane into the outer nuclear layer of the retina. The formation of these leaky capillaries is mainly attributed to changes in the level of angiogenic growth factors such as VEGF.
To perform the procedure, the pupils were dilated with 1-2 drops of 1% tropicamide. Subsequently, 4-6 photocoagulation lesions were delivered to each eye, using a Coherent argon laser (532 nm wavelength, 50 μm spot size, 0.1 s duration, 120-160 mW; model 920; Coherent, Palo Alto, Calif.) between the retinal vessels in a peripapillary distribution in each fundus, using a slit lamp delivery system and a cover glass as a contact lens. The genesis of a bubble at the time of laser treatment confirmed the rupture of the Bruch's membrane. […] Images were captured on a computer (using the IMAGEnet for Windows software, Topcon, Paramus, N.J.). Two masked evaluators performed the grading of the retinal images. A choroidal neovascular membrane is considered to be present if there was early hyperfluorescence followed by later leakage at the site where the laser injury is induced. […]

## aprotinin
[1]; 24 hours after 50 ng VEGF, aprotinin 50,000 KIU i.v. 1 hour before, 8 and 16 hours after
  leukocyte adhesion as a percentage of leukocyte adhesion in the contralateral PBS-injected eye: 252%
[1]; P>0.05
  leukocyte adhesion, VEGF-injected vs VEGF- and aprotinin-treated eyes: did not differ significantly
[2]; day 7 post injury
  CNV leakage on fluorescein angiography compared to vehicle treated controls: substantially smaller
[2]; day 14 post injury
  CNV lesion size on fluorescein angiography: further reduced lesion size
